Test results as given in ChEMBL document CHEMBL4296182, “CO-ADD screening of NIH NCI Diversity Set V”.
≈ marks a conversion by molar mass, not a printed value.

What was measured:
Candida albicans = assay: microbe, parasite or virus in culture; conditions: ATCC 90028, ASSAY_TEST Inhibition of Fungal Growth, detection method Absorption (OD530), plate type 384well, NBS, CORNING #3640
Description: Antifungal activity against Candida albicans ATCC 90028 (CO-ADD:FG_001); MIC in YNB media using NBS plates, by OD630

Acinetobacter baumannii = assay: microbe, parasite or virus in culture; conditions: ATCC 19606, 18 h, ASSAY_TEST Inhibition of Bacterial Growth, detection method Absorption (OD600), MEDIA CAMHB, plate type 384well, NBS, CORNING #3640
Description: Antibacterial activity against Acinetobacter baumannii ATCC 19606 (CO-ADD:GN_034); MIC in CAMBH media using NBS plates, by OD600

HEK293 = assay: cells; format: functional; conditions: Homo sapiens, ATCC CRL1573, HEK293; ASSAY_TEST Inhibition of Cell Viability; detection method Resazurin; Fluorescence (ex560/em590); MEDIA DMEM with 10% FBS; plate type 384well; TC; CORNING #3712; time 18 hr
Escherichia coli = assay: microbe, parasite or virus in culture; conditions: ATCC 25922, 18 h, ASSAY_TEST Inhibition of Bacterial Growth, detection method Absorption (OD600), MEDIA CAMHB, plate type 384well, NBS, CORNING #3640
Description: Antibacterial activity against Escherichia coli ATCC 25922 (CO-ADD:GN_001); MIC in CAMBH media using NBS plates, by OD(600)

Staphylococcus aureus = assay: microbe, parasite or virus in culture; conditions: ATCC 43300, 18 h, ASSAY_TEST Inhibition of Bacterial Growth, detection method Absorption (OD600), MEDIA CAMHB, plate type 384well, NBS, CORNING #3640
Description: Antibacterial activity against Staphylococcus aureus MRSA ATCC 43300 (CO-ADD:GP_020); MIC in CAMBH media, using NBS plates, by OD(600)

Pseudomonas aeruginosa = assay: microbe, parasite or virus in culture; conditions: ATCC 27853, 18 h, ASSAY_TEST Inhibition of Bacterial Growth, detection method Absorption (OD600), MEDIA CAMHB, plate type 384well, NBS, CORNING #3640
Description: Antibacterial activity against Pseudomonas aeruginosa ATCC 27853 (CO-ADD:GN_042); MIC in CAMBH media using NBS plates, by OD(600)

Klebsiella pneumoniae = assay: microbe, parasite or virus in culture; conditions: ATCC 700603, 18 h, ASSAY_TEST Inhibition of Bacterial Growth, detection method Absorption (OD600), MEDIA CAMHB, plate type 384well, NBS, CORNING #3640
Description: Antibacterial activity against Klebsiella pneumoniae MDR ATCC 70063 (CO-ADD:GN_003); MIC in CAMBH media using NBS plates, by OD(600)

Description for Cryptococcus neoformans: Antifungal activity against Cryptococcus neoformans H99 ATCC 208821 (CO-ADD:FG_002); MIC in YNB media using NBS plates, by Resazurin OD(600-570)

COC1CC2\C=C(C)/C=C/C=C/C(=O)NC(c3ccccc3)C/C=C/CCC(O)CC(=O)C2=C1O (stereo not drawn)
MIC (Candida albicans): 1.25 µM (≈ 0.597 µg/mL) | MIC (Acinetobacter baumannii): > 10 µM | CC50 (HEK293): 2.08 µM | MIC (Escherichia coli): > 10 µM | MIC (Staphylococcus aureus): 0.156 µM (≈ 0.0746 µg/mL) | MIC (Cryptococcus neoformans): 5 µM (≈ 2.39 µg/mL) | MIC (Pseudomonas aeruginosa): > 10 µM | MIC (Klebsiella pneumoniae): > 10 µM

Cn1c2ccccc2c2ccc3c(c21)C(=O)C=CC3=O
MIC (Candida albicans): > 10 µM | MIC (Acinetobacter baumannii): > 10 µM | CC50 (HEK293): > 10 µM | MIC (Escherichia coli): > 10 µM | MIC (Staphylococcus aureus): > 10 µM | MIC (Cryptococcus neoformans): > 10 µM | MIC (Pseudomonas aeruginosa): > 10 µM | MIC (Klebsiella pneumoniae): > 10 µM

Cc1c2cc[n+](CCN3CCCCC3)cc2c(C)c2c1[nH]c1ccc(O)cc12
MIC (Candida albicans): > 10 µM | MIC (Acinetobacter baumannii): > 10 µM | CC50 (HEK293): > 10 µM | MIC (Escherichia coli): > 10 µM | MIC (Staphylococcus aureus): > 10 µM | MIC (Cryptococcus neoformans): 10 µM | MIC (Pseudomonas aeruginosa): > 10 µM | MIC (Klebsiella pneumoniae): > 10 µM

COC12C(COC(N)=O)C3=C(C(=O)C(C)=C(N)C3=O)N1CC1C2N1C (stereo not drawn)
MIC (Candida albicans): > 10 µM | MIC (Acinetobacter baumannii): > 10 µM | CC50 (HEK293): > 10 µM | MIC (Escherichia coli): 5 µM (≈ 1.74 µg/mL) | MIC (Staphylococcus aureus): 0.156 µM (≈ 0.0544 µg/mL) | MIC (Cryptococcus neoformans): > 10 µM | MIC (Pseudomonas aeruginosa): > 10 µM | MIC (Klebsiella pneumoniae): > 10 µM

O=C(Nc1ccc(Cl)c(Cl)c1)Nc1ccc([N+](=O)[O-])cn1
MIC (Candida albicans): > 10 µM | MIC (Acinetobacter baumannii): > 10 µM | CC50 (HEK293): > 10 µM | MIC (Escherichia coli): > 10 µM | MIC (Staphylococcus aureus): > 10 µM | MIC (Cryptococcus neoformans): > 10 µM | MIC (Pseudomonas aeruginosa): > 10 µM | MIC (Klebsiella pneumoniae): > 10 µM

Oc1cccc2nc3ccccc3nc12
MIC (Candida albicans): > 10 µM | MIC (Acinetobacter baumannii): > 10 µM | CC50 (HEK293): > 10 µM | MIC (Escherichia coli): > 10 µM | MIC (Staphylococcus aureus): > 10 µM | MIC (Cryptococcus neoformans): > 10 µM | MIC (Pseudomonas aeruginosa): > 10 µM | MIC (Klebsiella pneumoniae): > 10 µM

Cc1nc(/N=N/c2ccccc2)[nH]c1/N=N/c1ccccc1
MIC (Candida albicans): > 10 µM | MIC (Acinetobacter baumannii): > 10 µM | CC50 (HEK293): > 10 µM | MIC (Escherichia coli): > 10 µM | MIC (Staphylococcus aureus): > 10 µM | MIC (Cryptococcus neoformans): > 10 µM | MIC (Pseudomonas aeruginosa): > 10 µM | MIC (Klebsiella pneumoniae): > 10 µM

CC1=C(O)C(=O)C=C2C1=CC=C1[C@@]2(C)CC[C@@]2(C)[C@@H]3C[C@](C)(C(=O)O)CC[C@]3(C)CC[C@]12C [CELASTROL]
MIC (Candida albicans): > 10 µM | MIC (Acinetobacter baumannii): > 10 µM | CC50 (HEK293): 0.837 µM | MIC (Escherichia coli): > 10 µM | MIC (Staphylococcus aureus): 2.5 µM (≈ 1.13 µg/mL) | MIC (Cryptococcus neoformans): > 10 µM | MIC (Pseudomonas aeruginosa): > 10 µM | MIC (Klebsiella pneumoniae): > 10 µM

Cc1ccc(NCCN(C)C)c2c(=O)c3cc(O)ccc3sc12
MIC (Candida albicans): > 10 µM | MIC (Acinetobacter baumannii): > 10 µM | CC50 (HEK293): 1.3 µM | MIC (Escherichia coli): > 10 µM | MIC (Staphylococcus aureus): > 10 µM | MIC (Cryptococcus neoformans): > 10 µM | MIC (Pseudomonas aeruginosa): > 10 µM | MIC (Klebsiella pneumoniae): > 10 µM

Cc1cnc(SCc2ccc(Cl)cc2Cl)nc1O
MIC (Candida albicans): > 10 µM | MIC (Acinetobacter baumannii): > 10 µM | CC50 (HEK293): > 10 µM | MIC (Escherichia coli): > 10 µM | MIC (Staphylococcus aureus): > 10 µM | MIC (Cryptococcus neoformans): > 10 µM | MIC (Pseudomonas aeruginosa): > 10 µM | MIC (Klebsiella pneumoniae): > 10 µM

Cn1c(=S)c2nc(SCCN3CCCC3)[nH]c2n(C)c1=O
MIC (Candida albicans): > 10 µM | MIC (Acinetobacter baumannii): > 10 µM | CC50 (HEK293): > 10 µM | MIC (Escherichia coli): 0.156 µM (≈ 0.0509 µg/mL) | MIC (Staphylococcus aureus): > 10 µM | MIC (Cryptococcus neoformans): > 10 µM | MIC (Pseudomonas aeruginosa): > 10 µM | MIC (Klebsiella pneumoniae): > 10 µM

CNc1ncn(-c2c(C)cccc2C)c(=O)n1
MIC (Candida albicans): > 10 µM | MIC (Acinetobacter baumannii): > 10 µM | CC50 (HEK293): > 10 µM | MIC (Escherichia coli): > 10 µM | MIC (Staphylococcus aureus): > 10 µM | MIC (Cryptococcus neoformans): > 10 µM | MIC (Pseudomonas aeruginosa): > 10 µM | MIC (Klebsiella pneumoniae): > 10 µM

O=C1C=C(c2ccccc2)OC(=O)C1C(=O)c1ccccc1 (stereo not drawn)
MIC (Candida albicans): > 10 µM | MIC (Acinetobacter baumannii): > 10 µM | CC50 (HEK293): > 10 µM | MIC (Escherichia coli): > 10 µM | MIC (Staphylococcus aureus): > 10 µM | MIC (Cryptococcus neoformans): > 10 µM | MIC (Pseudomonas aeruginosa): > 10 µM | MIC (Klebsiella pneumoniae): > 10 µM

Sc1nc2cc(-c3ccccc3)ccc2o1
MIC (Candida albicans): > 10 µM | MIC (Acinetobacter baumannii): > 10 µM | CC50 (HEK293): > 10 µM | MIC (Escherichia coli): > 10 µM | MIC (Staphylococcus aureus): > 10 µM | MIC (Cryptococcus neoformans): > 10 µM | MIC (Pseudomonas aeruginosa): > 10 µM | MIC (Klebsiella pneumoniae): > 10 µM

CC[C@@]1(O)C(=O)OCc2c1cc1n(c2=O)Cc2cc3c(NC(=O)CN)cccc3nc2-1
MIC (Candida albicans): > 10 µM | MIC (Acinetobacter baumannii): > 10 µM | CC50 (HEK293): 0.6 µM | MIC (Escherichia coli): > 10 µM | MIC (Staphylococcus aureus): > 10 µM | MIC (Cryptococcus neoformans): > 10 µM | MIC (Pseudomonas aeruginosa): > 10 µM | MIC (Klebsiella pneumoniae): > 10 µM

Cc1cc2nc(CS)[nH]c2cc1C
MIC (Candida albicans): > 10 µM | MIC (Acinetobacter baumannii): > 10 µM | CC50 (HEK293): > 10 µM | MIC (Escherichia coli): > 10 µM | MIC (Staphylococcus aureus): > 10 µM | MIC (Cryptococcus neoformans): > 10 µM | MIC (Pseudomonas aeruginosa): > 10 µM | MIC (Klebsiella pneumoniae): > 10 µM
